# According to patent US9051351B2, “Hepatocyte growth factor mimics as therapeutic agents” (Washington State University, priority 2011, dated 2015):
# “Also recorded” adds a separate entry of the source. Where a SMILES comes first, the peptide text is derived from it. [ ]: non-standard residue; d: D form. dNle = CCCC[C@@H](N)C(=O)O; Ahx = NCCCCCC(=O)O
# How the values were obtained:
# [1] = test system: MDCK cells; experiment: HGF-dependent MDCK cell proliferation (MTT); assay type: cell-based, canine; conditions: analog 10^−10M, HGF 10 ng/ml, 4 days
# Procedure: 5000 MDCK cells were seeded into the wells of a 96 well plates in 10% FBS DMEM. To induce cellular quiescence, the cells were serum deprived for 24 h prior to initiating the treatments. Following serum starvation, 10 ng/ml HGF alone and with various concentrations of 6-AH analogs or PBS vehicle were added to the media. The cells were allowed to grow under these conditions for 4 days with a daily addition of 6-AH analogs. On the fourth day, 1 mg/ml of […] (MTT, Sigma-Aldrich) prepared in PBS was added to the cells and incubated for 4 h. Dimethyl sulfoxide diluted in a 0.01M glycine buffer was added to solubilize the cell membranes and the absorbance of reduced MTT in the buffer was quantitated at 590 nm using a plate reader (Biotek Synergy 2, Winooski, Vt.). HGF-dependent proliferation was determined by subtracting the basal proliferation (in the absence of HGF) from total proliferation rates in groups containing HGF.
# [2] = rat, in vivo, iv, 24 mg/kg
# Procedure: Male Sprague-Dawley rats (250+ g) were allowed food (Harlan Teklad rodent diet) and water ad libitum in our AAALAC certified animal facility. Rats were housed in temperature-controlled rooms with a 12 h light/dark cycle. The right jugular veins of the rats were catheterized with sterile polyurethane Hydrocoat™ catheters (Access Technologies, Skokie, Ill., USA) under ketamine (Fort Dodge Animal Health, Fort Dodge, Iowa, USA) and isoflurane (Vet One™, MWI, Meridian, Id., USA) anesthesia. The catheters were exteriorized through the dorsal skin. The catheters were flushed with heparinized saline before and after blood sample collection and filled with heparin-glycerol locking solution (6 mL glycerol, 3 mL saline, 0.5 mL gentamycin (100 mg/mL), 0.5 mL heparin (10,000 u/mL)) when not used for more than 8 h. The animals were allowed to recover from surgery for several days before use in any experiment, and were fasted overnight prior to the pharmacokinetic experiment. […]
# Pharmacokinetic analysis was performed using data from individual rats. The mean and standard deviation (SD) were calculated for the group. Noncompartmental pharmacokinetic parameters were calculated from serum drug concentration-time profiles by use of WinNonlin® software (Pharsight, Mountain View, Calif., USA).
# [3] = target: T1, human HGF (Homo sapiens, UniProt P14210); experiment: HGF dimerization (PAGE, silver staining); assay type: biochemical; conditions: analog 10^−10 M, heparin, 30 minute incubation
# T1 construct: purchased R&D Systems (Minneapolis, Minn.)
# Procedure: HGF dimerization was assessed using PAGE followed by silver staining (Kawas et al., 2011). Human HGF at a concentration of 0.08 ng/μl with or without 6-AH analogs was incubated with heparin at a final concentration of 5 μg/ml. Loading buffer was then added to each sample and the mixture separated by native PAGE using gradient Criterion XT precast gels (4-12% Bis-Tris; Biorad Laboratories, Hercules, Calif.). Next the gel was silver stained for the detection of the HGF monomers and dimers. Bands were quantitated from digital images using a UVP phosphoimager (Upland, Calif.).
# [4] = Blood stability in heparinized rat blood; assay type: in vitro ADME; conditions: 37° C.; single phase exponential decay
# Procedure: At the end of each incubation, 20 μL of […]
# [5] = test system: B16-F10 murine melanoma cells; experiment: B16-F10 melanoma lung colony formation; assay type: in vivo, mouse; conditions: C57BL/6 mice; daily IP 10 μg/kg/day or 100 μg/kg/day, 14 days
# Procedure: Six to eight month old C57BL/6 mice were injected with 400,000 B16-F10 cells in 200 μl PBS by tail vein injection and subsequently received daily intraperitoneal injections of either D-Nle-X-Cys-NH—(CH2)5—CONH2 (10 μg/kg and 100 μg/kg) or a PBS vehicle control. Two weeks later, mice were anesthetized and lungs were perfused with PBS and removed. Photos were taken and lungs were solubilized in 1% Triton x-100, 20 mM Tris, 0.15 M NaCl, 2 mM EDTA, and 0.02% sodium azide. Samples were disrupted by sonication (Mixonix, Farmingdale, N.Y.) and spun. The supernatant was transferred to a 96 well plate and melanin absorbance at […] was measured using a plate reader.
# [6] = test system: scopolamine treated rats; experiment: Morris water maze, scopolamine amnesia model; assay type: in vivo, rat; conditions: for mean latency to find the pedestal: icv, Dihexa, Hinge 300 pmol, scopolamine 70 nmol
# Procedure: Swim speed was determined from these values.
# [7] = test system: hippocampal neurons; experiment: Whole-cell recordings of mEPSCs in dissociated hippocampal neurons; assay type: cell-based, rat; conditions: Dihexa, Hinge 10^−12 M; HGF 10 ng/ml; 5 days
# [8] = test system: hippocampal neurons; experiment: Dendritic spine counts (spinogenesis) in mRFP-β-actin transfected dissociated hippocampal neurons; assay type: cell-based, rat
# Procedure: Hippocampal neurons (2×10^5 cells per square cm) were cultured from P1 Sprague Dawley rats on plates coated with poly-L-lysine from Sigma (St. Louis, Mo.; molecular weight 300,000). […] Each experiment was repeated at least three times using independent culture preparations. […] Hippocampal neurons (2×10^5 cells per square centimeter) were cultured from P1-2 Sprague Dawley rats on plates coated with poly-L-lysine from Sigma (St. Louis, Mo.; molecular weight 300,000). Hippocampal neurons were maintained in Neurobasal A media from Invitrogen (Carlsbad, Calif.) supplemented with B27 from Invitrogen, 0.5 mM L-glutamine, and […] cytosine-D-arabinofuranoside from Sigma added at 2 days in vitro. Hippocampal neurons were then cultured a further 3-7 days, at which time they were either transfected or treated with various pharmacological reagents as described in the text or figure legends. Neurons were transfected with mRFP-β-actin on day in vitro 6 […] using LipofectAMINETM 2000 (Invitrogen) according to the manufacturer's protocol. […] On DIV7 the cells were treated with vehicle (H20) or peptides (as described in the text) added to media. […] Five 50 μm long segments of dendrite from at least 10 neurons per data point were analyzed for each data point reported. Each experiment was repeated at least three times using independent culture preparations. […] A target sequence for c-Met was designed using RNAi central design program (see the website located at […].edu/). The target sequence […] NO: 2) was inserted into pSUPER vector (Oligoengine, Seattle Wash.) which drives endogenous production of shRNA under the H1 promoter. The shRNA was transfected into cells using the lipofectamine method described above. Verification of receptor knockdown was done by creating a c-[…]-Myc tagged gene product using the Gateway cloning system (Invitrogen). The Met protein coding sequence was cloned from rat whole brain cDNA using primers obtained from Integrated DNA Technologies, Inc. The amplified product was gel purified and a band corresponding to 190 kDa band excised and cloned into a […] destination vector (Gateway). Hippocampal neurons (2×10^5 cells per square cm) were cultured from P1 Sprague Dawley rats on plates coated with poly-L-lysine from Sigma (St. Louis, Mo.; molecular weight […]).
# [9] = test system: MDCK cells; experiment: Inhibition of HGF-dependent scattering in MDCK cells; assay type: cell-based, canine
# Procedure: (§1) MDCK cells were grown to 100% confluency on the coverslips in six-well plates and washed twice with PBS. The confluent coverslips were then aseptically transferred to new six well plates containing 900 μl serum free DMEM. Norleual, Hinge peptide, and/or HGF (20 ng/ml) were added to appropriate wells. Control wells received PBS vehicle. Plates were incubated at 37° C. with 5% CO2 for 48 hours. Media was removed and cells were fixed with methanol. Cells were stained with Diff-Quik Wright-Giemsa (Dade-Behring, Newark, Del.) and digital images were taken. Coverslips were removed with forceps and more digital images were captured. Pixel quantification of images was achieved using Image J and statistics were performed using Prism 5 and InStat v.3.05.
# as §1, with “h.” for “hours.”, “Cells were stained with Diff-Quik Wright-Giemsa (Dade-Behring, Newark, Del.) and digital images were taken. Coverslips were removed with forceps and more digital images were captured.” left out, “v.3.05 (GraphPad; San Diego, Calif.).” for “v.3.05.”
# T1 sequence (P14210 32-728): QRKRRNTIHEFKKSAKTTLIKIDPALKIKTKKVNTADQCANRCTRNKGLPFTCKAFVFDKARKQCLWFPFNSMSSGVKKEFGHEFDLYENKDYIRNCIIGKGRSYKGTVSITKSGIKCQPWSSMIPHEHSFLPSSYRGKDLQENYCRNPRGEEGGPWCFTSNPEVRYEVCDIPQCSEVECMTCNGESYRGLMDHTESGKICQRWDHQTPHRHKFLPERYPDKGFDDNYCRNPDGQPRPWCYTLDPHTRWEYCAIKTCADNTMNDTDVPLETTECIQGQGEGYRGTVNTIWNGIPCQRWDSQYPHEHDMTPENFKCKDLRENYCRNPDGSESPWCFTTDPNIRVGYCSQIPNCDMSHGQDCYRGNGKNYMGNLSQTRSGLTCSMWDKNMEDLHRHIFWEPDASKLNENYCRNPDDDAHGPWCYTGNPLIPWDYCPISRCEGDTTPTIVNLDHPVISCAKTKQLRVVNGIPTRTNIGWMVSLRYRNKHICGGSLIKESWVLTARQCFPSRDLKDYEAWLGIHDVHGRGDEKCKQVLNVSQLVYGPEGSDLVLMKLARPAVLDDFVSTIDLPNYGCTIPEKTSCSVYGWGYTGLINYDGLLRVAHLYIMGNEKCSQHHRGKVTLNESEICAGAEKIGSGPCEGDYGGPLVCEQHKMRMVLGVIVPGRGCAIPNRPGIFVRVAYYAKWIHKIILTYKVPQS
compound,measurement,setting,value
CCCC[C@@H](N)C(=O)N[C@@H](Cc1ccc(O)cc1)C(=O)N[C@H](C(=O)NCCCCCC(N)=O)[C@@H](C)CC (H-[dNle]YI[Ahx]-NH2),inhibition of HGF-dependent MDCK cell proliferation,[1],marked inhibitory activity
same,Cp^0,[2],68.2 ± 32.2 ng/mL
same,KE,[2],0.001 ± 0.0002 min⁻¹
same,inhibition of HGF dimerization,[3],completely block HGF dimer formation
same,inhibition of HGF dimerization,[3]; listed as Tyr,statistically different than the HGF treated group
same,stability t1/2 in heparinized rat blood,[4],1.333 h
CCCC[C@@H](N)C(=O)N[C@@H](CS)C(=O)N[C@H](C(=O)NCCCCCC(N)=O)[C@@H](C)CC [D-Nle-Cys-Ile-NH—(CH2)5—CONH2] (H-[dNle]CI[Ahx]-NH2),inhibition of HGF-dependent MDCK cell proliferation,[1],marked inhibitory activity
same,inhibition of HGF dimerization,[3],completely block HGF dimer formation
same,inhibition of HGF dimerization,[3]; listed as Cys,statistically different than the HGF treated group
same,B16-F10 melanoma lung colonization,[5],suppressed pulmonary colonization; also recorded: radically prevented lung colonization; also recorded: obvious reduction in melanoma colonies
"Hinge: novel HGF antagonist Hinge (DYIRNC, SEQ ID NO: 3); elsewhere Hinge peptide (KDYIRN), the dimerization domain of HGF (Synthetic hinge peptide) [reference compound]",mean latency to find the pedestal,[6]; day one of training,111.1 s
same,mean latency to find the pedestal,[6]; final day of training (day 8),46.1 s
same,mean latency to find the pedestal,[6]; fourth day of training,78.3 s
same,"latency to escape, Morris water maze (FIG. 21)","[6]; i.c.v. injections, 8 days of training",no effect on learning
same,mean frequency of mEPSCs,[7],4.51±0.47
same,"inhibition of HGF-, Nle1-AngIV- and Dihexa-induced spinogenesis by Hinge","[8]; Hinge 10^−12 M, HGF 10 ng/ml, Nle1-AngIV or Dihexa 10^−12 M",effectively inhibit spine formation; also recorded: inhibits HGF-induced spinogenesis; also recorded: inhibits Nle1-AngIV-induced spinogenesis; also recorded: inhibits Dihexa-induced spinogenesis
same,effect of Hinge alone on spinogenesis,[8]; wide range of doses,no effect on spinogenesis over a wide range of doses; also recorded: does not affect spinogenesis
same,inhibition of MDCK cell scattering by Hinge,[9],inhibit scattering of Madin-Darby canine kidney (MDCK) cells
